Earlier results on two compounds are cited in patent publication US7232830B2, “Method for treatment of neurodegenerative diseases and effects of aging” (priority 1998, dated 2007).

SMILES strings stand for the structures. Structures can show the parent of a compound that is named as a salt.

For data set [1], the system named is histamine metabolism in the mouse brain.
Data set [2] deals with T1, MAO-B (Rattus norvegicus, UniProt P19643).
T1 construct: in vitro on monoamine oxidase activity in the rat brain; host or cells: rat brain
T1 sequence (P19643 1-520): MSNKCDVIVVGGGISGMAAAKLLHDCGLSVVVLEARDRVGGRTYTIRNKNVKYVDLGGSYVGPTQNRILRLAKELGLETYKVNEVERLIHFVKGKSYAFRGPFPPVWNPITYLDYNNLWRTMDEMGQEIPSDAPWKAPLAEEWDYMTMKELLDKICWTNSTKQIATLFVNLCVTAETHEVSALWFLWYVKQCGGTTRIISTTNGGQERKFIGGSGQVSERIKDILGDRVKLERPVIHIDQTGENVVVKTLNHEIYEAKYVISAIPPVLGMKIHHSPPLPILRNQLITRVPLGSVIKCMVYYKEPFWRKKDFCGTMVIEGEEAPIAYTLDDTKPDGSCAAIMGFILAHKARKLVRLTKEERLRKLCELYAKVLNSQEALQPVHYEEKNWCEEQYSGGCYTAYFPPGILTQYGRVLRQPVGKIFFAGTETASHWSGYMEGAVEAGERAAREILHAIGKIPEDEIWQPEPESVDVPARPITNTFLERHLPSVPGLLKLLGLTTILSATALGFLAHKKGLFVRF
The conditions noted are these: in vitro, rat brain.

With `COC(=O)[C@H]1[C@H]2C[C@@H]3c4[nH]c5cc(OC)ccc5c4CCN3C[C@H]2C[C@@H](OC(=O)c2cc(OC)c(OC)c(OC)c2)[C@@H]1OC` [reserpine], in data set [1], the “effect on a histidine decarboxylase inhibitor” value is “no significant affect” and the “effect on histamine increase induced by a histamine N-methyltransferase inhibitor” value is listed as “inhibited the histamine increase”.
Take `S=C(NC1CCCCC1)N1CCC(c2cnc[nH]2)CC1` [thioperamide maleate]: the “effect on MAO-B” value in data set [2] is “inhibits MAO-B”.
